According to publication PMC7347570, “A new functional JAZ degron sequence in strawberry JAZ1 revealed by structural and interaction studies on the COI1–JA-Ile/COR–JAZs complexes” (Scientific Reports, 2020):

Experiments:
Assay in all cases: yeast two-hybrid (GAL4), COR-dependent growth
Format in all cases: cell-based
AtCOI1–FaJAZ1 = target: T1, AtCOI1–FaJAZ1 (Arabidopsis thaliana; Fragaria x ananassa, UniProt A0A290U0M9+O04197); conditions: 50 µM COR; 28 °C, 5 days; JAZ co-receptor
T1 construct: gene COI1; mixed-species complex; Saccharomyces cerevisiae AH109

AtCOI1 with AtJAZ1 = target: T2, AtCOI1 with AtJAZ1 (Arabidopsis thaliana, UniProt O04197+Q9LMA8); conditions: 50 µM COR; 28 °C, 5 days; JAZ co-receptor
T2 construct: gene COI1; Saccharomyces cerevisiae AH109; degron LPIARR

AtCOI1–FaJAZ10 = target: T3, AtCOI1–FaJAZ10 (Arabidopsis thaliana; Fragaria x ananassa, UniProt A0A290U478+O04197); conditions: 50 µM COR; 28 °C, 5 days; JAZ co-receptor
T3 construct: gene COI1; mixed-species complex; Saccharomyces cerevisiae AH109

AtCOI1 with AtJAZ9 = target: T4, AtCOI1 with AtJAZ9 (Arabidopsis thaliana, UniProt O04197+Q8W4J8); conditions: 50 µM COR; 28 °C, 5 days; JAZ co-receptor
T4 construct: gene COI1; Saccharomyces cerevisiae AH109; degron VPQARK

AtJAZ9 and FaCOI1 = target: T5, AtJAZ9 and FaCOI1 (Fragaria x ananassa; Arabidopsis thaliana, UniProt A0A290U3W5+Q8W4J8); conditions: 50 µM COR; 28 °C, 5 days; JAZ co-receptor
T5 construct: gene COI1; mixed-species complex; Saccharomyces cerevisiae AH109

FaCOI1–FaJAZ1 = target: T6, FaCOI1–FaJAZ1 (Fragaria x ananassa, UniProt A0A290U0M9+A0A290U3W5); conditions: 50 µM COR; 28 °C, 5 days; growth on SD-Leu-Trp-His and SD-Leu-Trp-His-Ade; JAZ co-receptor
T6 construct: gene COI1; Saccharomyces cerevisiae AH109; native degron IPMQRK

FaCOI1–FaJAZ10 = target: T7, FaCOI1–FaJAZ10 (Fragaria x ananassa, UniProt A0A290U3W5+A0A290U478); conditions: 50 µM COR; 28 °C, 5 days; SD-Leu-Trp-His selection; JAZ co-receptor
T7 construct: gene COI1; Saccharomyces cerevisiae AH109; degron LPIARR
T7 sequence (A0A290U3W5 entry or part of it): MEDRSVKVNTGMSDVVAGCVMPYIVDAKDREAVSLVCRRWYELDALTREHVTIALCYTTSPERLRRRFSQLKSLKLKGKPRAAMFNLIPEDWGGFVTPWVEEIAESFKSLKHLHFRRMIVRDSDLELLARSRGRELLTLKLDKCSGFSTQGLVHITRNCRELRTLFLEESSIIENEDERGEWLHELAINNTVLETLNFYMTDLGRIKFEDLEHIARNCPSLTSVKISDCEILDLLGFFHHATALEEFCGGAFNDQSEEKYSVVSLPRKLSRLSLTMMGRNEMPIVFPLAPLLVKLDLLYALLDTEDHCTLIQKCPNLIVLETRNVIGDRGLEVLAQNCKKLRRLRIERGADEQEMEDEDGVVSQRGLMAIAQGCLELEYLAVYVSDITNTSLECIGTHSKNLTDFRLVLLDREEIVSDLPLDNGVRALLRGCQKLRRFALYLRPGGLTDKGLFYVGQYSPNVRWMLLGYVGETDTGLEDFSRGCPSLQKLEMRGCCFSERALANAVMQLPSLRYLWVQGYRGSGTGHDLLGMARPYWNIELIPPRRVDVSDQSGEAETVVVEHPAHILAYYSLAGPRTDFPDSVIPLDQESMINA
T7 sequence (A0A290U478 entry or part of it): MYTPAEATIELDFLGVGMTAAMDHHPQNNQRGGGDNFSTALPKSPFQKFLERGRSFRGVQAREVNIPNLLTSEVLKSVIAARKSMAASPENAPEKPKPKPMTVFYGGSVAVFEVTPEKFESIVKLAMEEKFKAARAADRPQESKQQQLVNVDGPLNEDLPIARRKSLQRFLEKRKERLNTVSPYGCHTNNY

T5 sequence (Q8W4J8 whole entry): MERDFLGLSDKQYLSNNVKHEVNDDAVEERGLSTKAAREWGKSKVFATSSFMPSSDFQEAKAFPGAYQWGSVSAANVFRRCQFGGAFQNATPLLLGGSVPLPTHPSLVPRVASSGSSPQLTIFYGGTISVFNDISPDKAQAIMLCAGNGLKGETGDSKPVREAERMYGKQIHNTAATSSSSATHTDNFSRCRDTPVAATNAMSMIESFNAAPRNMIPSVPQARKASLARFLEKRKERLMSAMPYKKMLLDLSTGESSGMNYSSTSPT
T5 sequence (A0A290U3W5 entry or part of it): as the sequence (A0A290U3W5 entry or part of it) above
T4 sequence (O04197 whole entry): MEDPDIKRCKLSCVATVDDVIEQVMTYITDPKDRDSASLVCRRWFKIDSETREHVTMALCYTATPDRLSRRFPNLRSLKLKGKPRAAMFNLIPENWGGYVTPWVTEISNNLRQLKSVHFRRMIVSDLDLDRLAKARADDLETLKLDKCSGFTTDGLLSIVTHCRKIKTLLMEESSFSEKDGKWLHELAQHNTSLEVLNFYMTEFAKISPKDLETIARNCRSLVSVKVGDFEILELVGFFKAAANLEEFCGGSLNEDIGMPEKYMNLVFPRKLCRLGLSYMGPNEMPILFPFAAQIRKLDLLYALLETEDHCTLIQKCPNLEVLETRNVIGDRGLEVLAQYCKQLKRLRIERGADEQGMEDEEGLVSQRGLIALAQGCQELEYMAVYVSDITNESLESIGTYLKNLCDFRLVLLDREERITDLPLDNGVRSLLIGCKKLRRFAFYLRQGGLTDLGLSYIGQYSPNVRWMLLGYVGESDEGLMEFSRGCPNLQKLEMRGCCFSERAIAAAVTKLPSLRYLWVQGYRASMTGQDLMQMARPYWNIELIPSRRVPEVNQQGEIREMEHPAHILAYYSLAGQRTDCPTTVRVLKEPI
T4 sequence (Q8W4J8 whole entry): as the sequence (Q8W4J8 whole entry) above
T3 sequence (O04197 whole entry): as the sequence (O04197 whole entry) above
T3 sequence (A0A290U478 entry or part of it): as the sequence (A0A290U478 entry or part of it) above
T2 sequence (Q9LMA8 whole entry): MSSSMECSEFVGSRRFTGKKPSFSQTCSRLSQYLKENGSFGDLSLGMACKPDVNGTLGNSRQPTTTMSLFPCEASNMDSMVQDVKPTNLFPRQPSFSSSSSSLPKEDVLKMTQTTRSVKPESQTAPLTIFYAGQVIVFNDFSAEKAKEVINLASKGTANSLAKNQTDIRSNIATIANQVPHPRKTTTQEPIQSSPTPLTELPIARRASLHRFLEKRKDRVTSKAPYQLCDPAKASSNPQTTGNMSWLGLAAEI
T2 sequence (O04197 whole entry): as the sequence (O04197 whole entry) above
T6 sequence (A0A290U0M9 entry or part of it): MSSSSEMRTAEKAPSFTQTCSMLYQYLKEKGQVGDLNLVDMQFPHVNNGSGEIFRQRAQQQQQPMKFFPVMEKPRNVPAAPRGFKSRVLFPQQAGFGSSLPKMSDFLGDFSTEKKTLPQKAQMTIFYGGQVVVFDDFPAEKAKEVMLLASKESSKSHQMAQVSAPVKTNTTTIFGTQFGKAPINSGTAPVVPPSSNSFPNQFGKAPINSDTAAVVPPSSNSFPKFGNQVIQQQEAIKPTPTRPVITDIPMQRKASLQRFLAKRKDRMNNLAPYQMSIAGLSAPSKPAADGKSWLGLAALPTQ
T6 sequence (A0A290U3W5 entry or part of it): as the sequence (A0A290U3W5 entry or part of it) above
T1 sequence (A0A290U0M9 entry or part of it): as the sequence (A0A290U0M9 entry or part of it) above
T1 sequence (O04197 whole entry): as the sequence (O04197 whole entry) above

Q: Which “yeast two-hybrid (GAL4), COR-dependent growth” value (“yeast two-hybrid (GAL4)” for short) (AtCOI1–FaJAZ1) does the source give for CC[C@H]1C=C(C(=O)N[C@@]2(C(=O)O)C[C@@H]2CC)[C@H]2CCC(=O)[C@H]2C1 [coronatine] here?
A: both FaJAZ1 and FaJAZ10 interacted with AtCOI1 in restrictive media and supplemented with COR

Q: And the “yeast two-hybrid (GAL4)” value (AtCOI1 with AtJAZ1)?
A: AtJAZ1 and AtJAZ9 interacted with AtCOI1 which was observed by colony growth

Q: What about the “yeast two-hybrid (GAL4)” value (AtCOI1–FaJAZ10) of the same compound?
A: both FaJAZ1 and FaJAZ10 interacted with AtCOI1 in restrictive media and supplemented with COR

Q: And the “yeast two-hybrid (GAL4)” value (AtCOI1 with AtJAZ9)?
A: AtJAZ1 and AtJAZ9 interacted with AtCOI1 which was observed by colony growth

Q: What about the “yeast two-hybrid (GAL4)” value (AtJAZ9 and FaCOI1) of the same compound?
A: only a positive interaction between AtJAZ9 and FaCOI1 promoted by COR was observed

Q: What about the “yeast two-hybrid (GAL4)” value (FaCOI1–FaJAZ1) of the same compound?
A: FaJAZ1 and FaJAZ10 interacted with FaCOI1 in a COR-dependent manner

Q: And the “yeast two-hybrid (GAL4)” value (FaCOI1–FaJAZ10)?
A: FaJAZ1 and FaJAZ10 interacted with FaCOI1 in a COR-dependent manner
